Experimental data reported in patent US20090311237A1, “Combination therapy using a soluble hyaluronidase and a bisphosphonate” (priority 2008, published 2009).

Legend:
Sprague Dawley rats = test: Injection site reactions (gross ISR incidence, lesion area) after intradermal injection of zoledronic acid with or without rHuPH20; assay type: in vivo, rat; conditions: for AUC (accumulated ISR area over 6 days) / Peak lesion area: rat ID 0.1 mL, rHuPH20 0 U/mL
Protocol: A rodent model of local injection site injury caused by ZA injection was employed for the study. […] Injection into the dermis facilitates external visualization and assessment of the irritant.
Nine to ten week old female Sprague Dawley rats, having approximate body weight of 200-250 grams, were employed for the study. One day prior to injection, rats were shaved and hair on the back and flank area were removed by Nair® cream (exposure less than 1 min to depilation cream) followed by deep wash with warm tap water. On the day of dosing, all rats were injected intradermally in flank area (one or two injection spots per side), with 0.1 or 0.2 mL as indicated of zoledronic acid solution, with or without rHuPH20, at each corresponding concentration as shown in study design table. Injection site appearance was observed and quantified by blind assessment each day following the injection until the end of the study, at which time animals were sacrificed and the skin around the dosing area as well as a part of the skin that was not effected by the dosing were collected and fixed in 10% neutral buffered formalin (NBF) and further embedded in paraffin, 5 μm sections were cut for H&E stain and histopathology evaluation.
Lesion area was calculated by the following formula: W×L×¼π. Quantitative results were analyzed using one-way analysis of variance (ANOVA) method, followed by Dunnett's comparison method (Prizm 4 program). The probability values of less than 0.05 (two-tailed) were used as the critical level of significance for all tests. Groups with a sample size of two were excluded from analysis. If the sample size was 2 for the control group, there were no statistical analyses at that interval for any of the groups. Histopathologic findings were characterized by semi-quantitative analysis of necrosis and infiltration in the skin tissue. The incidences of each finding were compared with control groups by Chi-square test.
Prior to ZA intradermal injection, rats were randomized by body weight into 7 groups of 1 or 2 rats per group (Table 2). Rats were injected with either 0.1 mL or 0.2 mL of each corresponding concentration intradermally at two separate locations on each shaved flank side for a total of 4 injections for each animal. Injection sites were observed daily post-injection for four days. Pictures of injection site reaction (ISR) area were captured by digital camera and lesion area was scored for induration, erythema, or ulceration. Two perpendicular diameters (width & length) of injection site lesion were measured by microcaliper. The lesion area was defined as the area bounded by the outer edge of the erythemic zone. Upon completion of the study, the animals were euthanized and skin at the injection site and from an untreated area of the back of the rat were excised, mounted flat onto a piece of cardboard, and placed in 10% NBF.
A series of experiments were conducted in which various dosing concentrations of rHuPH20 were tested for the ability to reduce acute injection site lesions. Prior to ZA intra-dermal injection, rats were randomized by body weight into 11 groups of 2 rats per group. Rats were injected intradermally with 0.1 mL of each co-formulated solution as shown in Table 5 and observed daily with ISR development assessed as in Section B. Four days after injection, rats were sacrificed and the skin at the injection site as well as untreated skin from the back was excised, mounted flat onto a piece of cardboard, and placed in 10% NBF.
Prior to ZA intra-dermal injection, rats were randomized by body weight into 6 groups of 3 rats per group (Table 6). Rats were intradermally injected with 0.1 mL of each corresponding co-formulated solution at two separate locations, two on each shaved flank side, for a total of 4 injections for each animal. Injection sites were observed daily with ISR development assessed as in Section B for 6 days. […]

[1] = Urinary excretion of unchanged ZA in pigs; assay type: in vivo, pig; conditions: for Dose Amt 2 hr, Mean / Dose Amt 2 hr, Median: n 4; for mean percent of dose excreted unchanged in urine: pig, first 2 hours post dose
Protocol: Following ZA dose administration, serial blood samples were collected via vascular access ports (VAPs) for serum preparation and determination of ZA concentrations. […] Urine samples were also collected to compare excretion characteristics between IV and SC routes of administration.
Serum concentration of ZA was determined using a qualified LC-MS-MS assay after derivatization with diazomethane (Zhu, L S et al. (2006) Rapid Commun. Mass Spectrom. 20: 3421-3426; “Qualification Data of An LC-MS/MS Method for the Determination of Zoledronate in Porcine Serum”, MDS Pharma Services Study No. AA43671-01, Report Date 14 Sep. 2007). The assay range was from 2.0 to 400 ng/mL with a lower limit of quantitation (LLOQ) at 2.0 ng/mL. Urine concentration of ZA was determined by a similar well qualified LC-MS-MS method (“Qualification Data of An LC-MS/MS Method for the Determination of Zoledronate in Porcine Urine”, MDS Pharma Services Study No. AA43671-02, Report Date 14 Sep. 2007) with an assay LLOQ at 10 ng/mL.
Amount of ZA excreted unchanged in urine was determined for the collection interval from dosing to 2-hour post dose and compared between dose routes and co-administration with rHuPH20.
Urine sample volumes and concentration of ZA in the samples were used to calculate the amount of unchanged ZA excreted via the kidneys. Since continuous collection was halted at 2 hours post dose, the percent of administered ZA dose that were renally excreted was not determined. However, the percent of dose excreted within the 2-hour collection interval was estimated with the relationship that the systemically available SC ZA dose is equal to: […]

[2] = Study Group 1, IV infusion, ZA […], dosing to 2 h post dose, n 3
[3] = Study Group 2, SC, […] dose only
[4] = Study Group 2, SC, n 5, dosing to 2 h post dose
[5] = Study Group 3, SC with rHuPH20, […] dose only
[6] = Study Group 3, SC with rHuPH20, n 4, dosing to 2 h post dose

## O=P(O)(O)C(O)(Cn1ccnc1)P(=O)(O)O [ZA, 1-hydroxy-2-(1H-imidazol-1-yl)ethylidene-1,1-bisphosphonic acid]
Sprague Dawley rats; ZA 0.05 mg/mL
  AUC (accumulated ISR area over 6 days): 110.8 ± 5.6 mm^2 · day
  Peak lesion area: 28.8 ± 1.8 mm^2
Sprague Dawley rats; ZA 0.1 mg/mL
  AUC (accumulated ISR area over 6 days): 108.3 ± 6.9 mm^2 · day
  Peak lesion area: 32.3 ± 2.7 mm^2
Sprague Dawley rats; ZA 0.4 mg/mL
  AUC (accumulated ISR area over 6 days): 226.5 ± 9.1 mm^2 · day
  Peak lesion area: 62.9 ± 5.1 mm^2
Sprague Dawley rats; rat ID, ZA alone 0.05-0.2 mg/ml
  erythema area: ~35 mm^2
[1]; [2]
  Dose Excreted, Mean: 11.40%
  Dose Excreted, Median: 10.71%
[1]; [3]
  Dose Amt 2 hr, Mean: 2.87 mg
  Dose Amt 2 hr, Median: 2.88 mg
[1]; [4]
  Dose Excreted, Mean: 9.45%
  Dose Excreted, Median: 6.73%
[1]; [5]
  Dose Amt 2 hr, Mean: 3.00 mg
  Dose Amt 2 hr, Median: 3.03 mg
[1]; [6]
  Dose Excreted, Mean: 10.66%
  Dose Excreted, Median: 12.04%
[1]; pig 56, Study Group 3, SC with rHuPH20, ZA […]
  Dose Amt 2 hr (SC AUC(0-2 h) × CL × body weight): 3.06 mg
[1]; pig 57, Study Group 1, IV infusion, ZA […], dosing to 2 h post dose
  Dose Excreted (unchanged in urine): 13.23%
[1]; pig 58, Study Group 3, SC with rHuPH20, ZA […]
  Dose Amt 2 hr (SC AUC(0-2 h) × CL × body weight): 3.03 mg
[1]; pig 58, Study Group 3, SC with rHuPH20, ZA […], dosing to 2 h post dose
  Dose Excreted (unchanged in urine): 0.41%
[1]; pig 59, Study Group 2, SC, ZA […]
  Dose Amt 2 hr (SC AUC(0-2 h) × CL × body weight): 1.44 mg
[1]; pig 59, Study Group 2, SC, ZA […], dosing to 2 h post dose
  Dose Excreted (unchanged in urine): 5.10%
[1]; pig 60, Study Group 2, SC, ZA […]
  Dose Amt 2 hr (SC AUC(0-2 h) × CL × body weight): 3.28 mg
[1]; pig 60, Study Group 2, SC, ZA […], dosing to 2 h post dose
  Dose Excreted (unchanged in urine): 6.73%
[1]; pig 61, Study Group 1, IV infusion, ZA […], dosing to 2 h post dose
  Dose Excreted (unchanged in urine): 10.71%
[1]; pig 62, Study Group 2, SC, ZA […]
  Dose Amt 2 hr (SC AUC(0-2 h) × CL × body weight): 2.42 mg
[1]; pig 62, Study Group 2, SC, ZA […], dosing to 2 h post dose
  Dose Excreted (unchanged in urine): 20.08%
[1]; pig 64, Study Group 3, SC with rHuPH20, ZA […]
  Dose Amt 2 hr (SC AUC(0-2 h) × CL × body weight): 2.86 mg
[1]; pig 64, Study Group 3, SC with rHuPH20, ZA […], dosing to 2 h post dose
  Dose Excreted (unchanged in urine): 12.29%
[1]; pig 66, Study Group 3, SC with rHuPH20, ZA […]
  Dose Amt 2 hr (SC AUC(0-2 h) × CL × body weight): 1.22 mg
[1]; pig 66, Study Group 3, SC with rHuPH20, ZA […], dosing to 2 h post dose
  Dose Excreted (unchanged in urine): 18.13%
[1]; pig 67, Study Group 1, IV infusion, ZA […], dosing to 2 h post dose
  Dose Excreted (unchanged in urine): 10.25%
[1]; pig 68, Study Group 3, SC with rHuPH20, ZA […]
  Dose Amt 2 hr (SC AUC(0-2 h) × CL × body weight): 3.03 mg
[1]; pig 68, Study Group 3, SC with rHuPH20, ZA […], dosing to 2 h post dose
  Dose Excreted (unchanged in urine): 11.79%
[1]; pig 69, Study Group 2, SC, ZA […]
  Dose Amt 2 hr (SC AUC(0-2 h) × CL × body weight): 2.83 mg
[1]; pig 69, Study Group 2, SC, ZA […], dosing to 2 h post dose
  Dose Excreted (unchanged in urine): 10.19%
[1]; pig 70, Study Group 2, SC, ZA […]
  Dose Amt 2 hr (SC AUC(0-2 h) × CL × body weight): 2.93 mg
[1]; pig 70, Study Group 2, SC, ZA […], dosing to 2 h post dose
  Dose Excreted (unchanged in urine): 5.17%
[1]; Study Group 1 (IV […])
  mean percent of dose excreted unchanged in urine: 11.40%
[1]; Study Group 2 (SC ZA without rHuPH20)
  mean percent of dose excreted unchanged in urine: 9.45%
